Experimental findings from article PMC5190008, “BO-1055, a novel DNA cross-linking agent with remarkable low myelotoxicity shows potent activity in sarcoma models” (Oncotarget, 2016) are described below.

One assay has as its system A673 cells. The assay can be described thus: Comet assay. The format is cell-based, human. Conditions: A673, 3h. As for the experimental part:
We used comet assay, which includes single cell gel electrophoresis to assess DNA breaks when exposed to radiation or DNA damaging agents. […] Olive moment (micrometers), a product of tail DNA% and the distance between the centroids of head and tail, is an accurate parameter of DNA damage. […] Gamma-H2AX (γH2AX) phosphorylation is the initial step in DNA damage response following double stranded breaks and is responsible for recruiting DNA repair proteins.
Comet assay was performed according to the protocol described earlier. […] The cells in agarose were transferred to slides coated with normal melting point agarose. The agarose-immobilized cells were lysed in alkaline solution and the agarose trapped DNA was electrophoresed. DNA was stained with ethidium bromide and image acquisition was done immediately. DNA damage quantification was performed using OpenComet v1.3, an open-source software plugin in Image J 1.47v software (NIH, USA) for automated analysis. Olive moment, which is the product of tail DNA% and the distance between the intensity-weighted centroids of head and tail was taken from the output for analysis.

The test system of assay [1] is Ewing sarcoma patient samples. The assay can be described thus: Alamar Blue cell proliferation assay. In kind it is cell-based, human. From the text:
Ewing sarcoma cell line A673, Prostate (PC-3, LNCaP, 22RV/HL2), colon (HCT-116), breast (MCF-7, MX-1), small cell lung cancer (H526) and renal (A-498, 786-0) cancer cell lines were purchased from American Type Culture Collection (ATCC, Manassas, VA). Dr. Marc Ladanyi (Department of Pathology, MSKCC) kindly provided the following cell lines: CHLA-9, TC32, RMS559 and TE-381. Dr. Gary Schwartz kindly provided the following osteosarcoma cell lines: OSA, U20S and SAOS. Dr. Constantine Markides, (CHRISTUS Stehlin Foundation for Cancer Research, TX) kindly provided Ewing sarcoma and desmoplastic small round cell tumor (DSRCT) cell lines, including CAR, ZUC, ORA, BER and BOD. Early cultures derived from Ewing sarcoma patient samples, including IARC-EW1, SIM-1 were obtained from the MSKCC monoclonal antibody core facility. […]
AlamarBlue® assay (Invitrogen, Carlsbad, CA, USA) was performed to evaluate anti-proliferative activity of the drugs in cell lines and primary cells. […] The absorbance was measured using the Synergy H1 hybrid multi-mode microplate reader (BioTek, USA). The drug effect was quantified as the percentage of control absorbance at 540 nm and 585 nm. Optical density was determined for 3 replicates per treatment condition and cell proliferation in drug-treated cells was normalized to their respective controls. […]
(In general: The colour change of resazurin is a common sign of viable cells or microbes.)

As to `CN(C)CCNC(=O)c1cccc(NC(=O)Nc2ccc(N(CCCl)CCCl)cc2)c1` [BO-1055], in the assay with A673 cells, the “olive moment relative to radiation (XRT, 8Gy)” value is listed as “comparable”. In the assay with A673 cells (increasing concentration), the “comet tail size (DNA breaks)” value was “increased tail size”. Further, in assay [1], the IC50 entry was “submicromolar”.
